For one data set, the system named is skin of the forearm. The settings on record: in vivo.
Data set [1] can be described thus: Solubility of benzoyl peroxide, judged by eye (crystals disappear or stay at the bottom). The class given is physicochemical. As for the experimental part: In embodiments described herein, the solubility of benzoyl peroxide is increased. The composition of benzoyl peroxide and Hest G-18-0 is transparent. Solubility is measured by visualizing whether the solid crystalline form of benzoyl peroxide disappears in the liquid or if it can be seen at the bottom of the solution in an undissolved crystalline form.

For data set [2] the following is noted: cited from earlier work.

With “Glycereth-18 ethylhexanoate [Hest G-18-0]”, the “erythema of the skin” value with skin of the forearm is “greatly reduced”.
For the compound `O=C(OOC(=O)c1ccccc1)c1ccccc1` [benzoyl peroxide, Benzoyl peroxide], the “solubility of benzoyl peroxide in Hest G-18-0” value in data set [1] (5% benzoyl peroxide in 100% Hest G-18-0, visual, FIG. 1 right beaker) is “completely dissolved”. Moreover, in data set [1] (5% benzoyl peroxide in 100% ethoxydiglycol, visual, FIG. 1 left beaker), the “solubility of benzoyl peroxide in ethoxydiglycol” value was “insolubility”. Moreover, the “solubility of benzoyl peroxide in water” value in data set [2] (at 25° C.) is listed as 9.1 ppm. The “solubility in common cosmetic solvents” value in data set [2] (ethanol, glycerin, propylene glycol, or butylene glycol) is recorded as “practically insoluble”.

The values are drawn from patent US10722488B2, “Hest G-18-0 and benzoyl peroxide compositions and methods for using the same” (RODAN & FIELDS, LLC, priority 2016, dated 2020).
